Earlier results on seven compounds are cited in patent US20100160456A1 (priority 2007, published 2010).

The conditions of data set [1]: incidence grade.
The conditions of data set [2]: known emulsion.
For data set [3] the following is noted: after being injected with Propofol.

As for `CCOC(=O)c1cncn1[C@H](C)c1ccccc1` [ETOM, Etomidate], in data set [1], the Delirium result is given as “+”, the Excitation entry was “++”, the Injection-related pain result is “+” and the Latency result is on record as “+”. The “Nausea & vomiting” value in data set [1] is listed as “+”.

In the case of `CC(=O)NS(=O)(=O)c1ccc(N)cc1` [KET, Cetamide], in data set [1], the Delirium entry is listed as “+++”, the Excitation result is recorded as “+++”, the Latency entry was “+” and the “Nausea & vomiting” value is recorded as “+”.

Take `C=CCC1(C(C)C#CCC)C(=O)N=C(O)N(C)C1=O` (stereo not shown) [MTOX, Methohexital]: in data set [1], the Awakening entry is “+”, the Excitation entry is “+”, the Injection-related pain entry is on record as “+” and the Latency result is recorded as “++”.

On to `CCCOC(=O)Cc1ccc(OCC(=O)N(CC)CC)c(OC)c1` [PRPN, Propanidine], for which, in data set [1], the Excitation entry is reported as “+”, the Latency entry is reported as “+” and the “Nausea & vomiting” value is “++”.

Take `CC(C)c1cccc(C(C)C)c1O` [Propofol, 2,6-diisopropylphenol]: in data set [2], the “shelf-life of the product once the ampoule is opened” value is reported as “approximately 8 hours”. For the same compound, in data set [1], the Awakening result is recorded as “+”, the Injection-related pain entry is listed as “+++” and the Latency entry is reported as “++”. In addition, the “patients with a rejection to the acute pain after injection” value in data set [3] is 80%.

For the compound `CCCC(C)C1(CC)C(=O)NC(=S)NC1=O` (stereo not shown) [TIOP, Thiopental], in data set [1], the Awakening entry is recorded as “+”, the Injection-related pain entry was “+” and the Latency result is reported as “++”.

Althesin [ALTS]: in data set [1], the Awakening result was “+”, the Excitation result is listed as “+”, the Latency entry is on record as “+” and the “Nausea & vomiting” value was “+”.
